Each block holds one compound with its values, some of them ahead of it.
Assays:
[1] = Eu^3+ complex, 0.1 M Me4NCl, 25 °C, cited from earlier work
[2] = 0.1 M Me4NCl, 25 °C; cited from earlier work
[3] = Relaxivity (NMRD) in saline solution, human plasma and Seronorm at 310 K; assay type: physicochemical
Experimental: The magnetic‐field dependence of the longitudinal relaxation rate of water protons (^1H NMRD) were measured in aqueous solution by using a variable field relaxometer equipped with an HTS‐110 3T Metrology Cryogen‐free Superconducting Magnet (Mede, Italy), operating in the overall range of proton Larmor frequencies of 20–120 MHz (0.47–3.00 T). The measurements were performed using the standard inversion recovery sequence (20 experiments, 3 scans) with a 90° pulse width of 3.5 µs. The temperature was controlled with a Stelar VTC‐91 heater airflow. Additional points in the 0.01–10 MHz frequency range were collected on a Fast‐Field Cycling (FFC) Stelar SmarTracer Relaxometer. T 1 values at 500 MHz were collected on a Bruker Avance III NMR spectrometer operating at 11.7 T. The concentration of Gd^3+ in the solutions was determined by using bulk magnetic susceptibility (BMS) shift measurements performed at 11.7 T. For the measurements in the biological fluid, lyophilized plasma matrix (Siemens Healthcare) was added to 1 mL of [Gd(ent‐L2)] (1.0 mM) or Seronorm (Sero) was solubilized in 5 mL [Gd(ent‐L2)] (1.0 mM) solution. ^1H NMRD of the final solution was measured at 310 K.

[4] = Biodistribution and in vivo dynamic T1-weighted MRI; set-up: species or system A/J healthy mice; details: 0.1 mmol Gd/kg i.v.
Experimental: Dynamic T 1‐weighted MRI on twelve A/J healthy mice was used to compare the biodistribution of ([Gd(ent‐L2)] and [Gd(BT‐DO3A)] (Gadovist), n = 6 animals each), administered at 0.1 mmol Gd/kg. The MRI monitored the distribution within abdominal tissues for up to 1 h post‐administration MRI images and the pharmacokinetic curves are shown in Figure 6 .
All the procedures and the experiments were conducted according to the national and international laws on experimental animal research (L.D. 26/2014; Directive 2010/63/EU) and under a specific Italian Ministerial Authorization (project research number 46/2015‐PR). Twelve A/J healthy mice (females, 6–7 weeks old, supplied by Envigo RMS S.r.l.) were housed in a controlled environment (22°C, 55% humidity, 15–20 air changes/hour, 12‐h light/dark cycle) with ad libitum access to VRF1 (P) certified pellets and filtered water. To minimize discomfort, the animals were socially housed with enrichment items. Veterinary care was available throughout the study to alleviate any potential pain or distress following procedures. […] The animals were randomly assigned to two experimental groups (n = 6 each, with sample size confirmed via GPower) and underwent to Magnetic Resonance Imaging (MRI) experiments performed using a BioSpec 47/30 preclinical scanner (Bruker Biospin, Ettlingen, Germany) operating at […] (i.e., at a proton Larmor frequency of 125 MHz) and equipped with two‐channel 35 mm RF volume coil. During MRI experiments, all the animals were anaesthetized with isoflurane gas (≈1%) in O2. Anaesthesia was maintained by adjustment of gas level as a function of breath rate. Before injection of each test article, T 1‐weighted spin echo sequences were acquired on the animal in order to check the position of the animal. A series of T 1‐weighted 3D gradient echoscans (repetition time = 50 ms, flip angle = 50°, echo time = 2.8 ms, number of averages = 2, matrix size (3D) = 192 × 192 × 8, field of view = 2.5 × 2.5 × 1.2 cm, acquisition time = 154 s) were then acquired before and after the intravenous administration of a 50 mM saline solution (0.9%) of [Gd(ent‐L2)] (n = 6 mice) and [Gd(BT‐DO3A)] (Gadovist, Bayer Schering, Germany) (n = 6 mice) at an injection rate of ≈2 mL/min through a catheter placed in the tail vein of the animal. Both [Gd(ent‐L2)] and [Gd(BT‐DO3A)] were administered at a dose of 0.1 mmol Gd/kg corresponding to an administration volume of 2 mL kg^−1. The kinetics of the Gd(III)‐complexes was followed up to 60 min post‐injection. After imaging was performed, the mouse was removed from the scanner and returned to the Animal Facility room. At the end of the study all animals were sacrificed by overdose of anaesthesia and cervical dislocation. Unblinded image analysis was performed by positioning the region of interest (ROIs) over liver, kidney, muscle, and blood vessel. ROIs positioning and signal quantification was performed by using a home‐developed plugin, running on Image J.^[ [51] ^]
Signal enhancement (Enh) was calculated using the formula: Enh = 100×(SignalpostCA ‐SignalpreCA)/SignalpreCA, where SignalpreCA and SignalpostCA denote the MR signal before and after administration of contrast agents, respectively. Data were presented as mean ± standard deviation (SD). The sample size (n = 6 per group) was determined a priori using GPower software to ensure adequate statistical power. The Levene's test was employed to assess the homogeneity of variances among groups. For comparisons where homogeneity of variance was confirmed, a one‐way ANalysis Of VAriance (ANOVA) was applied to test the null hypothesis that treatment groups originate from the same distribution. Post‐hoc pairwise multiple comparisons were performed using Tukey's method when significant differences were detected. Statistical analyses and data visualization were conducted using Mathematica (Wolfram, USA), while summary statistics (mean, SD, and standard error) were calculated using Microsoft Excel (USA). […]

SMILES: O=C(O)CCC(C(=O)O)N1CCN(C(CCC(=O)O)C(=O)O)Cc2cccc(n2)CN(C(CCC(=O)O)C(=O)O)CC1 (racemic) [rac‐L1, 2,2’,2’’-[3,6,9,15-tetraazabicyclo[9.3.1]pentadeca-1(15),11,13-triene-3,6,9-triyl]tripentanedioic acid]
pGd (Eu^3+) ([1]; 1 µM metal, 10 µM L, pH 7.4): 16.06
logK GdL (Eu^3+) [1]: 18.66
logKGdH2L (Eu^3+) [1]: 4.54
logKGdH3L (Eu^3+) [1]: 4.12
logKGdHL (Eu^3+) [1]: 5.34
logK^c GdL (Eu^3+) ([1]; pH 7.4): 15.10
logK1^H [2]: 10.85
logK2^H [2]: 6.86
logK3^H [2]: 5.37
logK4^H [2]: 4.77
logK5^H [2]: 4.24
logK6^H [2]: 3.4
logK7^H [2]: 1.92
ΣlogKi^H [2]: 37.50

plasma protein binding [3]: lack of plasma protein binding
wash-in and wash-out kinetics ([4]; up to 1 h post-administration): rapid wash‐in and wash‐out
decrease in signal enhancement in the blood compartment ([4]; within 30 min, 3 T): ≥ 50%
SMILES: O=C(CCC(C(=O)[O-])N1CCN(C(CCC(=O)NCC(O)CO)C(=O)[O-])Cc2cccc(n2)CN(C(CCC(=O)NCC(O)CO)C(=O)[O-])CC1)NCC(O)CO.[Gd+3] (stereo not drawn) [[Gd(ent‐L2)]]
r1 ([3]; 0.47 T, human plasma, 310 K): 13.6 ± 0.1 mM⁻¹ s⁻¹
r1 ([3]; 0.47 T, saline solution, 310 K): 12.6 ± 0.1 mM⁻¹ s⁻¹
r1 ([3]; 1.41 T, human plasma, 310 K): 13.4 ± 0.2 mM⁻¹ s⁻¹
r1 ([3]; 1.41 T, saline solution, 310 K): 12.6 ± 0.1 mM⁻¹ s⁻¹
r1 ([3]; 3 T, human plasma, 310 K): 13.1 ± 0.2 mM⁻¹ s⁻¹
r1 ([3]; 3 T, saline solution, 310 K): 12.4 ± 0.1 mM⁻¹ s⁻¹
r 1 relative to that of [Gd(BT-DO3A)] (Gadovist) ([3]; 37 °C and 3 T): more than two times higher
change in relaxivity (NMRD profile) in human plasma and in Seronorm ([3]; 310 K, vs water): negligible changes in relaxivity
elimination pathway [4]: renal elimination remains the primary pathway
average maximum signal enhancement in the liver ([4]; 3 T, n = 6): ≈ 210%
maximum signal enhancement in the blood compartment, times higher than that of [Gd(BT-DO3A)] ([4]; same dose, 3 T, significance level 0.1%): ≈ 2 times
